Measured values as given in patent US7776823B2, “Human cathelicidin antimicrobial peptides” (priority 2003, dated 2010).
Ends that are not written are not given here.

Assays:
[1] = system: Salmonella; test: Salmonella susceptibility to CRAMP; format: cell-based; details: 16 uM peptide; without NaHCO3
[2] = system: Staphylococcus aureus; test: S. aureus growth inhibition (turbidity OD600) with or without carbonate; format: cell-based; details: for Susceptibility of S. aureus: 16 uM peptide; for Effect of NaHCO3 on minimal inhibitory concentration (MIC) against Staph aureus: 20% TSB, 1 mM NaH2PO4, 50 mM NaHCO3, pH 7.4
Method: Carbonate was identified as the antimicrobial enhancing factor in mammalian tissue culture media via serial deletion of Minimal Essential Media (MEM) components. Staphylococcus aureus was cultured in 20% Tryptic Soy Broth (TSB), 10% Fetal Bovine Serum (FBS) and 70% of various media or media components with, or without, 32 μM LL-37 to assess which components could increase antimicrobial activity. MEM buffers are 2200 mg/L NaHCO3, 140 mg/L NaH2PO4 and 6800 mg/L NaCl. MEM salts are 200 mg/L CaCl2, 400 mg/L KCl, 98 mg/L MgSO4. All solutions were adjusted to pH 7.4. Bacterial growth was measured as the change in turbidity at OD600 and percent inhibition was determined by comparing bacterial growth in the presence of peptide to that in the absence of peptide. […]
Inhibition of Staph aureus growth in the presence of various concentrations of human (LL-37), murine (CRAMP) and porcine (PR-39). Cathelicidin antimicrobial peptides was measured in 20% TSB, 1 mM NaH2PO4, with, or without, 50 mM NaHCO3 at pH 7.4. […]

[3] = system: E. coli; test: E. coli susceptibility to CRAMP with or without NaHCO3; format: cell-based; details: 16 uM peptide
[4] = system: Group B Strep (GBS); test: Group B Strep susceptibility to CRAMP; format: cell-based; details: 16 uM peptide; without NaHCO3
[5] = system: antigen presentation; test: Antigen presentation in vitro; format: cell-based
[6] = system: enteroinvasive E. coli 029; test: Radial diffusion assay against E. coli 029; format: cell-based; details: for Action against E. coli compared to LL-37: synthetic peptides
Method: (§1) Antimicrobial assays. For screening of antimicrobial activity of HPLC fractions, radial diffusion assay was used. Lyophilized HPLC fractions were dissolved in DW (GibcoBRL, Grand Island, N.Y.), and tested against Staphylococcus aureus mprF. Thin plates (1 mm) of 1% agarose in 0.5% tryptone containing approximately […] of S. aureus mprF were used. 1 mm wells were punched in the plates and […] of samples dissolved in tissue culture grade sterile water were loaded in each well.
(§2) As a positive control, synthetic LL-37 was applied to separate wells. After incubation at 37° C. overnight, the inhibition zones were recorded by CCD camera and diameters measured. To evaluate antimicrobial activity against wild-type S. aureus (clinical isolate), and enteroinvasive E. coli 029, both radial diffusion and solution killing assays were done. Radial diffusion assays were done as described for S. aureus mprF. Solution killing was done in 10% TSB in 10 mM PB (TSB=30 gm/L Tryptic Soy Broth, Sigma, St Louis Mo.; 20×PB=27.6 g/L NaH2PO4-H2O, 53.65 g/L Na2HPO4-7H2O, pH 7.4). Bacteria in log-phase growth were suspended to 1×10^6 cells/ml, peptide added and incubated at 37° C. for 2 hr. Bacteria were then plated on TSB agar (TSB, Bactoagar 13 g/L, Becton Dickinson, Sparks Md.) for direct colony count and determination of CFU.

[7] = system: Staphylococcus aureus mprF; test: Radial diffusion assay against S. aureus mprF; format: cell-based
Method: as §1, §2

[8] = system: Group A Streptococcus (NZ131); format: cell-based
Method: as §2
(§3) Activity against Group A Streptococcus (NZ131) was done only in solution assay as described. To evaluate antimicrobial activity in high salt conditions, solution assay was done in 10% TSB/10 mM PBS with several salt concentrations (concentration of NaCl; 10, 50, 100, 150, 300, 500 mM). Action against the C. albicans was determined in Dixon medium (0.6% Peptone, 4% Malt Extract, 1% Glucose, 0.1% Ox Bile, 1% Tween-80) in sterile 96-well microtiter plates (Corning Inc., Corning, N.Y.) at a final volume of […]. The assay mixtures contained 1-2.5×10^4 […] freshly grown Candida, 20% Dixon medium, 0.6 mM phosphate buffer pH 7, and […] chloramphenicol. Microtiter plates were incubated at 37° C. for 24 h with peptides, then plated on Dixon agar to determine the MFC (minimum fungicide concentration).

[9] = system: wild-type S. aureus (clinical isolate); test: Radial diffusion assay against wild-type S. aureus; format: cell-based, Staphylococcus aureus; details: for Action against wild-type S. aureus compared to LL-37: synthetic peptides
Method: as §1, §2

[10] = system: human erythrocytes; test: Hemolysis assay on human whole blood; format: cell-based
Method: Hemolysis Assay. Hemolytic activity was determined on human whole blood. Freshly obtained whole blood was washed 3× in PBS and resuspended in PBS at its original volume containing peptides at indicated concentrations. Samples were incubated at 37° C. for 1.5 to 3 h, and hemolysis determined by centrifuging at 300 g and measurement of the absorbance of the supernatant at 578 nm. Hemolytic activity of each peptide was expressed as the percentage of total hemoglobin released compared to that released by incubating with 0.1% Triton X-100.

[11] = system: C. albicans ATCC 14053; test: Liquid assay against C. albicans (minimum fungicide concentration); format: cell-based, Candida albicans; details: for Fungicidal activity against Candida albicans compared to LL-37: synthetic peptides
Method: as §3

[12] = system: S. aureus; test: Release of cytoplasmic beta-galactosidase (membrane disruption); format: cell-based; details: with carbonate versus without
Excerpt: Release of cytoplasmic expressed beta-galactosidase was measure from bacteria with and without the addition of NaHCO3.

Substance | Radial Diffusion Assay minimal inhibitory concentration (MIC), E. coli (029) [6] [μm] | Radial Diffusion Assay minimal inhibitory concentration (MIC), S. aurus MprF [7] [μm] | Liquid Assay minimal concentration required to kill GAS (NZ131) [8] [μm] | Radial Diffusion Assay minimal inhibitory concentration (MIC), S. aureus (wt) [9] [μm] | % hemolysis [10] | Liquid Assay minimal concentration required to kill C. albicans ATCC 14053 [11] [μm] | Fungicidal activity against Candida albicans compared to LL-37 [11] | other results
CRAMP | – | – | – | – | – | – | – | Susceptibility of Salmonella [1]: susceptible; Susceptibility of S. aureus ([2]; with 50 mM NaHCO3): susceptible; Susceptibility of S. aureus ([2]; without 50 mM NaHCO3): resistant; Effect of NaHCO3 on minimal inhibitory concentration (MIC) against Staph aureus [2]: greatly reduced; Susceptibility of E. coli ([3]; with 50 mM NaHCO3): susceptible; Susceptibility of E. coli ([3]; without 50 mM NaHCO3): resistant; Susceptibility of Group B Strep (GBS) [4]: susceptible; Antigen presentation in vitro [5]: inhibits antigen presentation
KRIVQRIKDFLRNLVPRTES (listed as Homo sapiens) [KR-20, 20 amino acid cathelicidin derivative] | >64 | 16 | 4 | >64 | 0% | 10 | increased fungicidal activity | –
KSKEKIGKEFKRIVQRIKDFLRNLVPRTES [KS-30] | 8 | 8 | 4 | 16 | .23% | 2 | increased fungicidal activity | Action against E. coli compared to LL-37 [6]: greatly increased action; Action against wild-type S. aureus compared to LL-37 [9]: greatly increased action
PR-39: porcine cathelicidin antimicrobial peptide (RRRPRPPYLPRPRPPPFFPPRLPPRIPPGFPPRFPPRFP; UniProt P80054 131-169, looked up) | – | – | – | – | – | – | – | Effect of NaHCO3 on minimal inhibitory concentration (MIC) against Staph aureus [2]: greatly reduced
Polymyxin B | – | – | – | – | – | – | – | Leakage of cytoplasmic protein (beta-galactosidase) from S. aureus [12]: greater leakage
RKSKEKIGKEFKRIVQRIKDFLRNLVPRTES (listed as Homo sapiens) [RK-31, cathelicidin peptide generated from LL-37] | 8 | 8 | 8 | 16 | 6% | 4 | increased fungicidal activity | Action against E. coli compared to LL-37 [6]: greatly increased action; Action against wild-type S. aureus compared to LL-37 [9]: greatly increased action
SSLLEKGLDGAKKAVGGLGKLGKDAVEDLESVGKGAVHDVKDVLDSV (listed as Homo sapiens) [DCD, dermcidin antimicrobial peptide of human sweat, reference compound] | >64 | >64 | >64 | >64 | – | >32 | – | –
